According to PubChem BioAssay (NCI):
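48-hour exposure; five concentrations; linearly interpolated endpoints. At the TGI there is no net growth.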

Assays:
Assay in all cases: NCI anticancer screen, dose series, 48 h
[1] = system: SNB-75 CNS
[2] = system: NCI/ADR-RES ovarian
[3] = system: RXF 393 renal
[4] = system: MALME-3M melanoma
[5] = system: U251 CNS
[6] = system: UO-31 renal
[7] = system: IGROV1 ovarian
[8] = system: SF-539 CNS
[9] = system: PC-3 prostate
[10] = system: OVCAR-8 ovarian
[11] = system: HCC-2998 colon
[12] = system: BT-549 breast
[13] = system: A498 renal
[14] = system: RPMI-8226 leukemia
[15] = system: MOLT-4 leukemia
[16] = system: SK-MEL-5 melanoma
[17] = system: EKVX NSCLC
[18] = system: SF-268 CNS
[19] = system: NCI-H522 lung
[20] = system: MDA-MB-231 breast
[21] = system: KM12 colon
[22] = system: OVCAR-4 ovarian
[23] = system: HOP-62 NSCLC
[24] = system: CCRF-CEM leukemia
[25] = system: TK-10 renal
[26] = system: HS 578T breast
[27] = system: NCI-H460 lung
[28] = system: HOP-92 NSCLC
[29] = system: HL-60(TB) leukemia
[30] = system: T-47D breast
[31] = system: 786-0 renal
[32] = system: A549 NSCLC
[33] = system: K-562 leukemia
[34] = system: SR leukemia
[35] = system: SNB-19 CNS
[36] = system: SK-MEL-28 melanoma
[37] = system: HT29 colon
[38] = system: SN12C renal
[39] = system: HCT-116 colon
[40] = system: M14 melanoma
[41] = system: DU-145 prostate
[42] = system: UACC-257 melanoma
[43] = system: COLO 205 colon
[44] = system: HCT-15 colon
[45] = system: MDA-MB-435
[46] = system: LOX IMVI melanoma
[47] = system: MCF7 breast
[48] = system: ACHN renal
[49] = system: OVCAR-5 ovarian
[50] = system: UACC-62 melanoma
[51] = system: NCI-H226 lung
[52] = system: OVCAR-3 ovarian
[53] = system: NCI-H23 lung
[54] = system: SK-MEL-2 melanoma
[55] = system: MDA-N
[56] = system: SK-OV-3 ovarian
[57] = system: CAKI-1 renal
[58] = system: SF-295 CNS
[59] = system: SW-620 colon

O=C1c2ccccc2C(=O)N1[C@@H](Cc1ccccc1)C(=O)n1cccc1CO
TGI [1]: > 100 µM
TGI [2]: > 100 µM
TGI [3]: 56.6 µM
TGI [4]: > 100 µM
TGI [5]: > 100 µM
TGI [6]: > 100 µM
TGI [7]: > 100 µM
TGI [8]: > 100 µM
TGI [9]: > 100 µM
TGI [10]: > 100 µM
TGI [11]: > 100 µM
TGI [12]: > 100 µM
TGI [13]: > 100 µM
TGI [14]: > 100 µM
TGI [15]: > 100 µM
TGI [16]: > 100 µM
TGI [17]: > 100 µM
TGI [18]: > 100 µM
TGI [19]: > 100 µM
TGI [20]: > 100 µM
TGI [21]: > 100 µM
TGI [22]: > 100 µM
TGI [23]: > 100 µM
TGI [24]: > 100 µM
TGI [25]: > 100 µM
TGI [26]: > 100 µM
TGI [27]: > 100 µM
TGI [28]: > 100 µM
TGI [29]: > 100 µM
TGI [30]: > 100 µM
TGI [31]: > 100 µM
TGI [32]: > 100 µM
TGI [33]: > 100 µM
TGI [34]: > 100 µM
TGI [35]: > 100 µM
TGI [36]: > 100 µM
TGI [37]: > 100 µM
TGI [38]: > 100 µM
TGI [39]: > 100 µM
TGI [40]: > 100 µM
TGI [41]: > 100 µM
TGI [42]: > 100 µM
TGI [43]: > 100 µM
TGI [44]: > 100 µM
TGI [45]: > 100 µM
TGI [46]: > 100 µM
TGI [47]: > 100 µM
TGI [48]: > 100 µM
TGI [49]: > 100 µM
TGI [50]: > 100 µM
TGI [51]: > 100 µM
TGI [52]: > 100 µM
TGI [53]: > 100 µM
TGI [54]: > 100 µM
TGI [55]: > 100 µM
TGI [56]: > 100 µM
TGI [57]: > 100 µM
TGI [58]: > 100 µM
TGI [59]: > 100 µM

Cn1c(=O)c2[nH]c(CCCCc3nc4ccccc4[nH]3)nc2n(C)c1=O
TGI [1]: > 100 µM
TGI [2]: > 100 µM
TGI [3]: > 100 µM
TGI [4]: > 100 µM
TGI [5]: > 100 µM
TGI [6]: > 100 µM
TGI [7]: > 100 µM
TGI [8]: > 100 µM
TGI [9]: > 100 µM
TGI [10]: > 100 µM
TGI [11]: > 100 µM
TGI [12]: > 100 µM
TGI [13]: > 100 µM
TGI [14]: > 100 µM
TGI [15]: > 100 µM
TGI [16]: > 100 µM
TGI [17]: > 100 µM
TGI [18]: > 100 µM
TGI [19]: > 100 µM
TGI [20]: > 100 µM
TGI [21]: > 100 µM
TGI [22]: > 100 µM
TGI [23]: > 100 µM
TGI [24]: > 100 µM
TGI [25]: > 100 µM
TGI [26]: > 100 µM
TGI [27]: > 100 µM
TGI [28]: 95.8 µM
TGI [29]: > 100 µM
TGI [30]: > 100 µM
TGI [31]: > 100 µM
TGI [32]: > 100 µM
TGI [33]: > 100 µM
TGI [34]: > 100 µM
TGI [35]: > 100 µM
TGI [36]: > 100 µM
TGI [37]: > 100 µM
TGI [38]: > 100 µM
TGI [39]: > 100 µM
TGI [40]: > 100 µM
TGI [41]: > 100 µM
TGI [42]: > 100 µM
TGI [43]: > 100 µM
TGI [44]: > 100 µM
TGI [45]: > 100 µM
TGI [46]: > 100 µM
TGI [47]: > 100 µM
TGI [48]: > 100 µM
TGI [49]: > 100 µM
TGI [50]: > 100 µM
TGI [51]: > 100 µM
TGI [52]: > 100 µM
TGI [53]: > 100 µM
TGI [54]: > 100 µM
TGI [55]: > 100 µM
TGI [56]: > 100 µM
TGI [57]: > 100 µM
TGI [58]: > 100 µM
TGI [59]: > 100 µM

COc1ccc(NC2C(=O)C3(C)CCC2C3(C)C)cc1 (configuration not stated)
TGI [1]: > 100 µM
TGI [2]: > 100 µM
TGI [3]: > 100 µM
TGI [4]: > 100 µM
TGI [5]: > 100 µM
TGI [6]: > 100 µM
TGI [7]: > 100 µM
TGI [8]: > 100 µM
TGI [9]: > 100 µM
TGI [10]: > 100 µM
TGI [11]: > 100 µM
TGI [12]: > 100 µM
TGI [13]: > 100 µM
TGI [14]: > 100 µM
TGI [15]: > 100 µM
TGI [16]: 99.8 µM
TGI [17]: > 100 µM
TGI [18]: > 100 µM
TGI [19]: > 100 µM
TGI [20]: > 100 µM
TGI [21]: > 100 µM
TGI [22]: > 100 µM
TGI [23]: > 100 µM
TGI [24]: > 100 µM
TGI [25]: > 100 µM
TGI [26]: > 100 µM
TGI [27]: > 100 µM
TGI [28]: > 100 µM
TGI [29]: > 100 µM
TGI [30]: > 100 µM
TGI [31]: > 100 µM
TGI [32]: > 100 µM
TGI [33]: > 100 µM
TGI [34]: > 100 µM
TGI [35]: > 100 µM
TGI [36]: > 100 µM
TGI [37]: > 100 µM
TGI [38]: > 100 µM
TGI [39]: > 100 µM
TGI [40]: > 100 µM
TGI [41]: > 100 µM
TGI [42]: > 100 µM
TGI [43]: > 100 µM
TGI [44]: > 100 µM
TGI [45]: > 100 µM
TGI [46]: > 100 µM
TGI [47]: > 100 µM
TGI [48]: > 100 µM
TGI [49]: > 100 µM
TGI [50]: > 100 µM
TGI [51]: > 100 µM
TGI [52]: > 100 µM
TGI [53]: > 100 µM
TGI [54]: > 100 µM
TGI [55]: > 100 µM
TGI [56]: > 100 µM
TGI [57]: > 100 µM
TGI [58]: > 100 µM
TGI [59]: > 100 µM
